# Measured values: US11649248B2, “Oxadiazaspiro compounds for the treatment of drug abuse and addiction” (ESTEVE PHARMACEUTICALS, S.A., priority 2015, dated 2023)
# Target: human σ1 receptor (Homo sapiens (Human), UniProt Q99720)
# Experiment: Human σ1 receptor radioligand assay
# Assay type: binding
# Conditions: transfected HEK-293 membranes, [3H](+)-pentazocine radioligand
# Procedure: Human σ1 Receptor Radioligand Assay
# The assay was carried out with 7 μg of membrane suspension, 5 nM of [^3H](+)-pentazocine in either absence or presence of either buffer or 10 μM Haloperidol for total and non-specific binding, respectively. Binding buffer contained Tris-HCl 50 mM at pH 8. Plates were incubated at 37° C. for 120 minutes. […] Filters were dried and counted at approximately 40% efficiency in a MicroBeta scintillation counter (Perkin-Elmer) using EcoScint liquid scintillation cocktail
# Chain of human σ1 receptor (Q99720 whole entry): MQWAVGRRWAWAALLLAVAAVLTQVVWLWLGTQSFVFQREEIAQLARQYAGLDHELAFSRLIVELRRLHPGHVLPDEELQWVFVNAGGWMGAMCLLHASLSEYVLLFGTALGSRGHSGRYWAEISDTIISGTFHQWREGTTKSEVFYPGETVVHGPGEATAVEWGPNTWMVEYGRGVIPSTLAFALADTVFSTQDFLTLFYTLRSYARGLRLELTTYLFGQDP
compound,measurement,value
"CCN1CC2(CCN(CCC(C)(C)C)CC2)O[C@@H](C)C1=O [Example 52, (S)-9-(3,3-dimethylbutyl)-4-ethyl-2-methyl-1-oxa-4,9-diazaspiro[5.5]undecan-3-one]",Ki,< 500 nM
